In article PMC8042770, “Odorant Receptors for Detecting Flowering Plant Cues Are Functionally Conserved across Moths and Butterflies” (Molecular Biology and Evolution, 2020):

Key:
[1] = test system: HarmOR repertoire; test: Responses of the 28 functional HarmORs across odorant doses (PCA of oocyte currents); format: cell-based, Helicoverpa armigera; conditions: odorant 10^−7 M
Source text: Vectors quantifying the responses of the 28 ORs to each odorant were projected onto a 3D landscape. This 3D representation captured 78.34% (10^−4 M), 65.11% (10^−5 M), 68.89% (10^−6 M), and 84.52% (10^−7 M) of the variation in the original 28D data set across different odorant concentrations. […] In addition, the capacity of the H. armigera odor space was highly dependent on odorant concentration. As the concentrations of odorants decreased, their positions in the odor space converged, with the ability to discriminate different odorants diminishing.
Functional characterization of individual ORs was performed by heterologous expression in Xenopus oocytes combined with a two-electrode voltage-clamp system ([Wang et al. 2010]). Briefly, the full-length gene of each OR and Orco were subcloned into the eukaryotic expression vector pT7TS. cRNAs were generated from linearized expression vectors using the mMESSAGE mMACHINE T7 kit (Ambion, Austin, TX). Then, the cRNA mixture of ORx and Orco (27.6 ng each) was injected (Nanoliter 2010, WPI Inc., Sarasota, FL) into oocytes (stage V–VII). The respective Orcos of different species were used for functional studies of OR42 orthologs except for the four butterfly species (V. tameamea, P. xuthus, D. plexippus, and P. rapae), in which we used the Orco from P. xuthus. After incubation in nutrient solution at 18 °C for 3–5 days, the response profile of each oocyte to multiple plant odorants was recorded via a two-electrode voltage clamp (OC-725C oocyte clamp, Warner Instruments, Hamden, CT) at a holding potential of −80 mV. Data were acquired by using a Digidata 1440 A and were analyzed by pCLAMP 10.2 software (Axon Instruments Inc., Union City, CA).
Stock solutions of each odorant were prepared at 1 M using DMSO as a solvent, and each odorant was diluted in 1× Ringer’s solution to the indicated concentrations for electrophysiological recording. For functional screening of each HarmOR, a panel of 67 odorants belonging to three types of chemical classes: terpenes, aromatics, and aliphatics (short-chain fatty acid) were used (supplementary table S1, Supplementary Material online). For functional studies of OR42 orthologs from different species, six odorants including PAA, benzaldehyde, (E)-2-hexen-1-al, cinnamaldehyde, 2-phenylethanol, and heptanal were used.
Graphs and data statistics of OR response spectra, dose responses, EAG, and behavioral experiments were generated by Prism 7 (GraphPad Software, La Jolla, CA). A heat map was generated in Excel 2010 (Microsoft Corporation, WA). […] For tuning breadth analysis, the kurtosis values (K) were calculated by SPSS 22 (SPSS Inc., Chicago, IL) and were used to define the tuning spectra width, where smaller K values represent broader tuning spectra (fig. 1B). […]

[2] = test system: H. armigera third instar larvae; test: Petri dish choice assay, third instar larvae; format: in vivo, Helicoverpa armigera
Protocol: Our results provide strong evidence that PAA, via its detection by HarmOR42, is an important host plant cue in both larval and adult stages of H. armigera.
For assessing larval behavior to PAA, the experiments were performed in closed plastic Petri dishes of 15 cm diameter (fig. 6D) as in [Poivet et al. (2013)] with some modifications. To ascertain the choice zone, we tracked the behavior trajectory of larvae to a regular diet. A piece of regular diet nutrition was placed at one of the opposite ends of the dish along the diameter. Ten third instar larvae were placed in the middle of the dish. The location of larvae was marked every 10 min for 1 h. Four replications were performed. Most of the larvae made choices within 40 min, so this time point was selected for choice statistics. For the choice behavior test, PAA and paraffin oil (solvent) were respectively added onto a piece of 1 × 1 cm filter paper and the papers were arranged at opposite ends. The two-choice zones were delineated by 4-cm radius half circles centered at each of the filter papers. The choice indexes (CI) were calculated using the formula: CI = (P − C)/T, where P represents the number of larvae that entered the PAA choice zone, C represents the number of larvae that entered the solvent zone, and T represents the total number of larvae in the test (ten larvae). We first determined the efficient test dose using three different dilutions of PAA (0.1, 1, and 10 μg) against wild-type larvae. The CI of larvae to PAA was compared with a blank (solvent on each side of the dish). […] Therefore, we used 1 μg of PAA to test the choice behavior of mutant larvae. Ten replicates were performed for each test.

[3] = test system: SlitOR14; parameters: method as in de Fouchier et al. 2017; conditions: ref de Fouchier et al. 2017; cited from earlier work
[4] = test system: H. armigera moths; test: Two-choice olfactometer behavioral assay, adult moths; format: in vivo, Helicoverpa armigera; conditions: females and males, 0.01 mg PAA or 50 μl 0.1% IAC, 10 h
Protocol: In a first step, we tested the attractiveness of PAA and a commercial mix of floral attractants, which takes PAA as its principal component (IAC) ([Cork 2016]; [Whitfield et al. 2019]), to H. armigera moths using a two-choice behavioral assay in a choice box (fig. 6A).
For adults, behavioral experiments were performed in a two-choice olfactometer according to a previous study with some modifications ([Del Socorro et al. 2010]). The olfactometer apparatus consisted of a main-chamber (60 cm × 30 cm × 25 cm) and two-choice subchambers under the main-chamber (20 cm × 15 cm × 25 cm) (fig. 6A). A metal gauze funnel (10 cm diameter) was inserted between the main-chamber and the subchambers. A hole at the bottom of the funnel allowed the moth to enter the subchamber. Clean humidified air flows (15 l/min) entered each subchamber and were exhausted by an exhaust fan. All the experiments were performed during the moth scotophase at 27 ± 1 °C. […] After 10 h, the number of moths in each subchamber was recorded. […] A selection ratio (SR) was calculated using the formula: SR = T/(T + C), where T represents the number of moths that entered the test subchamber and C represents the number of moths that entered the control subchamber. […] A quantity of 0.01 mg PAA was applied. […] The results were statistically analyzed using a χ^2 test.

With `O=CCc1ccccc1` [Phenylacetaldehyde] the “response of the HarmOR repertoire” value [1] was “still responded”, the “preference of HarmOR42 knock-out mutant larvae” value ([2]; third instar, knock-out, 1 μg) was “lost their preference” and the “attractive effect on wild-type larvae” value ([2]; third instar, wild type, 1 μg, 40 min) was “significantly attracted”. For the same molecule, the “dose giving the most positive choice” value ([2]; wild-type larvae, 0.1, 1 and 10 μg tested) was 1 µg, the “response of SlitOR14” value [3] was “high specificity and sensitivity” and the “attractiveness to wild-type moths vs solvent” value [4] was “more attractive to H. armigera moths than the solvent control, but the results were not statistically significant”.
